Reference: patent US8569499B2, “Process for making trans-1-((1R,3S)-6-chloro-3-phenylindan-1-yl)-3,3-dimethylpiperazine” (H. Lundbeck A/S, priority 2005, dated 2013)

Legend:
[1] = system: pigs sensitized to haloperidol; test: dystonia in pigs sensitized to haloperidol; format: in vivo
[2] = target: dopamine (DA) D1 receptors (Homo sapiens, UniProt P21728); settings: as described in PCT/DK04/000546; cited from earlier work
[3] = target: DA D2 receptors (Homo sapiens, UniProt P14416); settings: as described in PCT/DK04/000546; cited from earlier work
[4] = system: alfa1 adrenoceptors; settings: as described in PCT/DK04/000546; cited from earlier work
[5] = target: dopamine D1 receptors (Homo sapiens, UniProt P21728); settings: as described in PCT/DK04/000546; cited from earlier work
[6] = target: dopamine D2 receptors (Homo sapiens, UniProt P14416); settings: as described in PCT/DK04/000546; cited from earlier work
[7] = target: serotonin 5-HT2a receptors (Homo sapiens, UniProt P28223); settings: as described in PCT/DK04/000546; cited from earlier work
[8] = target: CYP2D6 (Homo sapiens, UniProt P10635); settings: as described in PCT/DK04/000546; cited from earlier work
[9] = system: rabbit model; settings: as described in PCT/DK04/000546; cited from earlier work

Sequence of CYP2D6 (P10635 whole entry): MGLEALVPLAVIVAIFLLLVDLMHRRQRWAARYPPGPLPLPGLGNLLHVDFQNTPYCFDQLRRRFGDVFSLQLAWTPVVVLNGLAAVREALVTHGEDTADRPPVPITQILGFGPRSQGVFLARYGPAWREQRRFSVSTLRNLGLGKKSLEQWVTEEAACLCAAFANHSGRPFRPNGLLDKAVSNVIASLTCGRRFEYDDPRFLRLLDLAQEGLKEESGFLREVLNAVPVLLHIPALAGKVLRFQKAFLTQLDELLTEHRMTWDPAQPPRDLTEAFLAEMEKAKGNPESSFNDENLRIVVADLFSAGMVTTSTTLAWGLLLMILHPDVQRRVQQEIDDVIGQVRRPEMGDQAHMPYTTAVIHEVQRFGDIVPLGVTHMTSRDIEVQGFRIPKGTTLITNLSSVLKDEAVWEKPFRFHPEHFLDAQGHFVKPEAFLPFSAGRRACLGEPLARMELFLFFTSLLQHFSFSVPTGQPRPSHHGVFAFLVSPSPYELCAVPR
Sequence of dopamine D2 receptors (P14416 whole entry): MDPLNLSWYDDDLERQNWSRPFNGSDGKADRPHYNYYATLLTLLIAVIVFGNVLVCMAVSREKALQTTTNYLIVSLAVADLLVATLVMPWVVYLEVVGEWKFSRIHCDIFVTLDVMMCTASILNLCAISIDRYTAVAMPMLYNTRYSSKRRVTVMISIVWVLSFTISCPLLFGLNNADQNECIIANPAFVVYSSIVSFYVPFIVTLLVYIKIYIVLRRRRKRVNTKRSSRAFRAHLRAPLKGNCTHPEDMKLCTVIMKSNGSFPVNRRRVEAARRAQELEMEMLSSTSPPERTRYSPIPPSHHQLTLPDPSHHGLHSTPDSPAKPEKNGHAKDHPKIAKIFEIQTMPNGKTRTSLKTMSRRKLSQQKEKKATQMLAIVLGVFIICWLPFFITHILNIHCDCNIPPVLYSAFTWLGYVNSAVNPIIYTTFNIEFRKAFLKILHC
Sequence of DA D2 receptors (P14416 whole entry): as above
Sequence of serotonin 5-HT2a receptors (P28223 whole entry): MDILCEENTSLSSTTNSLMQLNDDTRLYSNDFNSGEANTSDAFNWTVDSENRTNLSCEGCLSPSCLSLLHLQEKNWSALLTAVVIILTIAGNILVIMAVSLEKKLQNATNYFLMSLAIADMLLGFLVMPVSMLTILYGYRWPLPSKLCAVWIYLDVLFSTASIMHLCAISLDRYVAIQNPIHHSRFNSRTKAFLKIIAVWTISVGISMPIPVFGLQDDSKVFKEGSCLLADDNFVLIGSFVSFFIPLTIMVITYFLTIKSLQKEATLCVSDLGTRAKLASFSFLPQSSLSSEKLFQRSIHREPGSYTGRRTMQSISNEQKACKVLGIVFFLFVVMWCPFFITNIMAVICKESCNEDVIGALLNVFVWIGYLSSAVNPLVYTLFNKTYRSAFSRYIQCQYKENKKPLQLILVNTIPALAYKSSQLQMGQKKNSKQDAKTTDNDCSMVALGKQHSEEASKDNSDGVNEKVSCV
Sequence of dopamine (DA) D1 receptors (P21728 whole entry): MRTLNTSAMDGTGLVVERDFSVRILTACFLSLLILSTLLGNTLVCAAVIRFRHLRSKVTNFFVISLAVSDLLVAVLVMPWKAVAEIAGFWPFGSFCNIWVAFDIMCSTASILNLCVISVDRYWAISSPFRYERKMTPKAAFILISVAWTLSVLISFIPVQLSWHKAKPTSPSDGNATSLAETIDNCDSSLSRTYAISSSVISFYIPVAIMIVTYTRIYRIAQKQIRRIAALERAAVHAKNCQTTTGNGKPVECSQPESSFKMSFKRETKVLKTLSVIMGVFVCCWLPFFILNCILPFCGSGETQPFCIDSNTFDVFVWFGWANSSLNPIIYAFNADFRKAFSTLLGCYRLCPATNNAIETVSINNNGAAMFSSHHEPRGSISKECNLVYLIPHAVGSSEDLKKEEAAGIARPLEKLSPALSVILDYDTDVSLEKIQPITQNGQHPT
Sequence of dopamine D1 receptors (P21728 whole entry): as above

CC1(C)CN([C@@H]2C[C@@H](c3ccccc3)c3ccc(Cl)cc32)CCN1 [Compound I, trans-1-((1R,3S)-6-chloro-3-phenylindan-1-yl)-3,3-dimethylpiperazine]
induction of dystonia (EPS liability) [1]: did not induce dystonia | affinity for dopamine (DA) D1 receptors [2]: high affinity | affinity for DA D2 receptors [3]: high affinity | affinity for alfa1 adrenoceptors [4]: high affinity | functional activity at dopamine D1 receptors [5]: antagonist | functional activity at dopamine D2 receptors [6]: antagonist | functional activity at serotonin 5-HT2a receptors [7]: antagonist | inhibition of CYP2D6 [8]: relatively weak inhibitor | effect on the QT interval [9]: relatively low effect
